Experiments:
Format in all cases: cell-based
NCI-H526 cell line = experiment: Cell viability assay for H526 cell (EZ-Cytox); conditions: Homo sapiens, NCI-H526, 120 h; H526 cells, 5 days, 3000 nM to 0.46 nM
Method in brief: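 NCI-H526 cells were exposed to compound in CO2 incubator culture for 5 days. Viability was read by EZ-Cytox absorbance at 450 nm after 3 min shaking, giving IC50 values.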

MRC-5 cell line = experiment: Cell viability assay for MRC-5 cell line (EZ-Cytox); conditions: Homo sapiens, MRC5, 120 h; MRC-5 normal cell line, 5 days, 10000 nM to 1.52 nM; N.D. = no cytotoxicity until 10 μM; read-out: Activity: IC50 value of Exemplary Compound to MRC-5 cell line
Experimental: 4. Cell Viability Assay for MRC-5 Cell Line
(1) Culture of MRC-5 Cell Line
Passage of cultured cells was maintained within P15.
(2) Treatment of Compounds of the Present Invention
Then, it was cultured in 37° C.
(3) Cytotoxicity Experiment
CO2 incubator for 4 hours.

PLK1 = biological target: T1, PLK1 (Homo sapiens, UniProt P53350); experiment: Luciferase assay for PLK1 in HeLa LgBit (Plk1-HiBit KI) cell line; conditions: 300 nM compound, luminescence after 9 hours
T1 construct: endogenous in cells; host or cells: HeLa LgBit (Plk1-HiBit KI): HeLa stably expressing LgBit, with a CRISPR/Cas9 knock-in of HiBit at the endogenous PLK1 locus
Method in brief: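 HeLa cells stably expressing LgBit, with HiBit knocked in at the C-terminus of endogenous Plk1, released from a 24 h 2 mM thymidine block and grown 18 h. Endurazine added, then compound at 300 nM; luminescence tracked in real time, expressed as ratio to DMSO.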

T1 sequence (P53350 whole entry): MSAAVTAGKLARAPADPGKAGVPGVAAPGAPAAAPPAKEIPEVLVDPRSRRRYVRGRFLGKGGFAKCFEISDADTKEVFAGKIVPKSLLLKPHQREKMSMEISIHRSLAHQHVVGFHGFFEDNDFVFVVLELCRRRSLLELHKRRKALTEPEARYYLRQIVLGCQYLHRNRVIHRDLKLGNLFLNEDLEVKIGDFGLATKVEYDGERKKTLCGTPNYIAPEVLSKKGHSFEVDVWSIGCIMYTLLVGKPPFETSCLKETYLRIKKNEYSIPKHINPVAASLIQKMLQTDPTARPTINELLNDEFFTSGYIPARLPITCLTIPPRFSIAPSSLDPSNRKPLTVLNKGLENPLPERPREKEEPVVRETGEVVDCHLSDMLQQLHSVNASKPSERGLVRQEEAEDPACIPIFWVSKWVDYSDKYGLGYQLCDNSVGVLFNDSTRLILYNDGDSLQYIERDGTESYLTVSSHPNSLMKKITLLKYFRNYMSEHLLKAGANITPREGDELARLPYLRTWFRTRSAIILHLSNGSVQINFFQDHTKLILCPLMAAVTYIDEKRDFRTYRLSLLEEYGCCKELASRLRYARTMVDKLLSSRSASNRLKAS

Row | Compound | IC50 (NCI-H526 cell line) [µM] | IC50 (MRC-5 cell line) [µM] | Activity: ratio of the luminescense value of each Exemplary Compound treatment group to DMSO treatment group (PLK1)
1 | COc1cc(C(=O)N[C@H]2CC[C@H](N3CCN(CCOCCNc4cccc5c4C(=O)N(C4CCC(=O)NC4=O)C5=O)CC3)CC2)ccc1Nc1ncc2c(n1)N(C1CCCC1)CC(F)(F)C(=O)N2C (stereo partly drawn) [Compound 194, 4-((9-cyclopentyl-7,7-difluoro-5-methyl-6-oxo-6,7,8,9-tetrahydro-5H-pyrimido[4,5-b][1,4]diazepin-2-yl)amino)-N-((1r,4r)-4-(4-(2-(2-((2-(2,6-dioxopiperidin-3-yl)-1,3-dioxoisoindolin-4-yl)amino)ethoxy)ethyl)piperazin-1-yl)cyclohexyl)-3-methoxybenzamide] | < 0.05 | > 10 | ++ (++<0.6)
2 | COc1cc(C(=O)N[C@H]2CC[C@H](N3CCN(CCCNc4cccc5c4C(=O)N(C4CCC(=O)NC4=O)C5=O)CC3)CC2)c(F)cc1Nc1ncc2c(n1)N(C1CCCC1)CC(F)(F)C(=O)N2C (stereo partly drawn) [Compound 197, 4-((9-cyclopentyl-7,7-difluoro-5-methyl-6-oxo-6,7,8,9-tetrahydro-5H-pyrimido[4,5-b][1,4]diazepin-2-yl)amino)-N-((1r,4r)-4-(4-(3-((2-(2,6-dioxopiperidin-3-yl)-1,3-dioxoisoindolin-4-yl)amino)propyl)piperazin-1-yl)cyclohexyl)-2-fluoro-5-methoxybenzamide] | < 0.05 | 18 | ++ (++<0.6)
3 | COc1cc(C(=O)NN2CCN(C3CN(c4ccc5c(c4)C(=O)N(C4CCC(=O)NC4=O)C5=O)C3)CC2)ccc1Nc1ncc2c(n1)N(C1CCCC1)CC(F)(F)C(=O)N2C (stereo not drawn) [Compound 201, 4-((9-cyclopentyl-7,7-difluoro-5-methyl-6-oxo-6,7,8,9-tetrahydro-5H-pyrimido[4,5-b][1,4]diazepin-2-yl)amino)-N-(4-(1-(2-(2,6-dioxopiperidin-3-yl)-1,3-dioxoisoindolin-5-yl)azetidin-3-yl)piperazin-1-yl)-3-methoxybenzamide] | < 0.05 | > 10 | +++ (+++: <0.3)
4 | COc1cc(C(=O)NC2CCN(C(=O)CC3CN(c4ccc5c(c4)C(=O)N(C4CCC(=O)NC4=O)C5=O)C3)CC2)c(F)cc1Nc1ncc2c(n1)N(C1CCCC1)CC(F)(F)C(=O)N2C (stereo not drawn) [Compound 205, 4-((9-cyclopentyl-7,7-difluoro-5-methyl-6-oxo-6,7,8,9-tetrahydro-5H-pyrimido[4,5-b][1,4]diazepin-2-yl)amino)-N-(1-(2-(1-(2-(2,6-dioxopiperidin-3-yl)-1,3-dioxoisoindolin-5-yl)azetidin-3-yl)acetyl)piperidin-4-yl)-2-fluoro-5-methoxybenzamide] | < 0.05 | > 10 | ++ (++<0.6)
5 | COc1cc(C(=O)NC2CCN(C3CC4(CCN(c5cccc6c5C(=O)N(C5CCC(=O)NC5=O)C6=O)CC4)C3)CC2)c(F)cc1Nc1ncc2c(n1)N(C1CCCC1)CC(F)(F)C(=O)N2C (stereo not drawn) [Compound 208, 4-((9-cyclopentyl-7,7-difluoro-5-methyl-6-oxo-6,7,8,9-tetrahydro-5H-pyrimido[4,5-b][1,4]diazepin-2-yl)amino)-N-(1-(7-(2-(2,6-dioxopiperidin-3-yl)-1,3-dioxoisoindolin-4-yl)-7-azaspiro[3.5]nonan-2-yl)piperidin-4-yl)-2-fluoro-5-methoxybenzamide] | < 0.1 | > 10 | ++ (++<0.6)
6 | COc1cc(C(=O)NN2CCC(N3CC4(CCN(c5cccc6c5C(=O)N(C5CCC(=O)NC5=O)C6=O)CC4)C3)CC2)c(F)cc1Nc1ncc2c(n1)N(C1CCCC1)CC(F)(F)C(=O)N2C (stereo not drawn) [Compound 209, 4-((9-cyclopentyl-7,7-difluoro-5-methyl-6-oxo-6,7,8,9-tetrahydro-5H-pyrimido[4,5-b][1,4]diazepin-2-yl)amino)-N-(4-(7-(2-(2,6-dioxopiperidin-3-yl)-1,3-dioxoisoindolin-4-yl)-2,7-diazaspiro[3.5]nonan-2-yl)piperidin-1-yl)-2-fluoro-5-methoxybenzamide] | < 0.05 | 5.31 | ++ (++<0.6)
7 | COc1cc(C(=O)NN2CCC(N3CC4(CCN(c5cccc6c5C(=O)N(C5CCC(=O)NC5=O)C6=O)CC4)C3)CC2)c(F)cc1Nc1ncc2c(n1)N(C(C)C)CC(F)(F)C(=O)N2C (stereo not drawn) [Compound 210, 4-((7,7-difluoro-9-isopropyl-5-methyl-6-oxo-6,7,8,9-tetrahydro-5H-pyrimido[4,5-b][1,4]diazepin-2-yl)amino)-N-(4-(7-(2-(2,6-dioxopiperidin-3-yl)-1,3-dioxoisoindolin-4-yl)-2,7-diazaspiro[3.5]nonan-2-yl)piperidin-1-yl)-2-fluoro-5-methoxybenzamide] | < 0.05 | 18.2 | ++ (++<0.6)
8 | COc1cc(C(=O)NN2CCC(N3CC4(CCN(c5cccc6c5C(=O)N(C5CCC(=O)NC5=O)C6=O)CC4)C3)CC2)ccc1Nc1ncc2c(n1)N(C1CCCC1)CC(F)(F)C(=O)N2C (stereo not drawn) [Compound 211, 4-((9-cyclopentyl-7,7-difluoro-5-methyl-6-oxo-6,7,8,9-tetrahydro-5H-pyrimido[4,5-b][1,4]diazepin-2-yl)amino)-N-(4-(7-(2-(2,6-dioxopiperidin-3-yl)-1,3-dioxoisoindolin-4-yl)-2,7-diazaspiro[3.5]nonan-2-yl)piperidin-1-yl)-3-methoxybenzamide] | < 0.03 | > 10 | +++ (+++: <0.3)
9 | COc1cc(C(=O)NN2CCC(N3CC4(CCN(c5ccc6c(c5)C(=O)N(C5CCC(=O)NC5=O)C6=O)CC4)C3)CC2)ccc1Nc1ncc2c(n1)N(C1CCCC1)CC(F)(F)C(=O)N2C (stereo not drawn) [Compound 212, 4-((9-cyclopentyl-7,7-difluoro-5-methyl-6-oxo-6,7,8,9-tetrahydro-5H-pyrimido[4,5-b][1,4]diazepin-2-yl)amino)-N-(4-(7-(2-(2,6-dioxopiperidin-3-yl)-1,3-dioxoisoindolin-5-yl)-2,7-diazaspiro[3.5]nonan-2-yl)piperidin-1-yl)-3-methoxybenzamide] | < 0.03 | > 10 | ++ (++<0.6)
10 | COc1cc(C(=O)NN2CCC(N3CC4(CCN(c5cccc6c5C(=O)N(C5CCC(=O)NC5=O)C6=O)CC4)C3)CC2)ccc1Nc1ncc2c(n1)N(C(C)C)CC(F)(F)C(=O)N2C (stereo not drawn) [Compound 213, 4-((7,7-difluoro-9-isopropyl-5-methyl-6-oxo-6,7,8,9-tetrahydro-5H-pyrimido[4,5-b][1,4]diazepin-2-yl)amino)-N-(4-(7-(2-(2,6-dioxopiperidin-3-yl)-1,3-dioxoisoindolin-4-yl)-2,7-diazaspiro[3.5]nonan-2-yl)piperidin-1-yl)-3-methoxybenzamide] | < 0.03 | > 10 | ++ (++<0.6)
11 | COc1cc(C(=O)N2CCC(N3CC4(CCN(c5cc6c(cc5F)C(=O)N(C5CCC(=O)NC5=O)C6=O)CC4)C3)CC2)ccc1Nc1ncc2c(n1)N(C(C)C)CC(F)(F)C(=O)N2C (stereo not drawn) [Compound 215, 5-(2-(1-(4-((7,7-difluoro-9-isopropyl-5-methyl-6-oxo-6,7,8,9-tetrahydro-5H-pyrimido[4,5-b][1,4]diazepin-2-yl)amino)-3-methoxybenzoyl)piperidin-4-yl)-2,7-diazaspiro[3.5]nonan-7-yl)-2-(2,6-dioxopiperidin-3-yl)-6-fluoroisoindoline-1,3-dione] | < 0.4 | 16.2 | ++ (++<0.6)
12 | COc1cc(C(=O)NN2CCC(N3CC4(CCN(c5cc6c(cc5F)C(=O)N(C5CCC(=O)NC5=O)C6=O)CC4)C3)CC2)ccc1Nc1ncc2c(n1)N(C(C)C)CC(F)(F)C(=O)N2C (stereo not drawn) [Compound 216, 4-((7,7-difluoro-9-isopropyl-5-methyl-6-oxo-6,7,8,9-tetrahydro-5H-pyrimido[4,5-b][1,4]diazepin-2-yl)amino)-N-(4-(7-(2-(2,6-dioxopiperidin-3-yl)-6-fluoro-1,3-dioxoisoindolin-5-yl)-2,7-diazaspiro[3.5]nonan-2-yl)piperidin-1-yl)-3-methoxybenzamide] | < 0.2 | 27 | ++ (++<0.6)
13 | COc1cc(C(=O)NN2CCC(N3CC4(CCN(c5cc6c(cc5F)C(=O)N(C5CCC(=O)NC5=O)C6=O)CC4)C3)CC2)c(F)cc1Nc1ncc2c(n1)N(C(C)C)CC(F)(F)C(=O)N2C (stereo not drawn) [Compound 217, 4-((7,7-difluoro-9-isopropyl-5-methyl-6-oxo-6,7,8,9-tetrahydro-5H-pyrimido[4,5-b][1,4]diazepin-2-yl)amino)-N-(4-(7-(2-(2,6-dioxopiperidin-3-yl)-6-fluoro-1,3-dioxoisoindolin-5-yl)-2,7-diazaspiro[3.5]nonan-2-yl)piperidin-1-yl)-2-fluoro-5-methoxybenzamide] | < 0.4 | 16.4 | ++ (++<0.6)

From patent publication US20250114460A1, “NOVEL PLK1 DEGRADATION INDUCING COMPOUND” (UPPTHERA, INC., priority 2021, published 2025)
